Laboratory results as given in patent US11033535B2, “Oxadiazoles and thiadiazoles as TGF-β inhibitors” (Southern Research Institute, priority 2017, dated 2021).

Experiments:
[1] = test system: BLM induced lung fibrosis; experiment: BLM induced unilateral lung fibrosis model; format: in vivo, SD rats; parameters: left lung bronchial and arteriole damages (score), In the fibrosis core (n = 6) / left lung bronchial and arteriole damages (score), In the border of fibrosis (n = 6): scale not given here; details: for body weight, Changes in the ratio (%) / body weight: 10 mg/kg/d ip (n = 6); for body weight: in g (unit assumed)
Experimental: Species and quality level: SD rats, SPF grade; Gender and number: male, 12; Purchasing body weight range: 260-280 g; Company Certificate No.: SCXX (zhe) 2018-0001, Zhejiang Vital River Laboratory Animal Technology Co., Ltd.
Model Establishment: This study was carried out in strict accordance with the SOP institutional guidelines for the care and use of laboratory animals. Rats were anesthetized by intraperitoneal injection of pentobarbital sodium at dose of 50 mg/kg. Then rat neck skin was disinfected and opened in layers. The trachea was exposed carefully. Bleomycin (BLM) was directly injected into left main bronchus at a dose of 3 mg/kg body weight in volume of 1.0 ml/kg via a cannula. After closing the trachea and skin in layers the animal was moved on an electric heat pad at 37° C. to wait waking up from anesthesia before returning to holding cages with free access to water and diet.
Rats were assigned into two groups: Model (Group-1, n=6), CPD-X (Group-2, 10 mg/kg/d, n=6) (Table 13).
a Test article, CPD-X was designed as an intraperitoneal injection once a day starting from day-8 of modeling for 14 days (Table 13). The saline as a vehicle for model group via a ip injection once a day for 14 days.
One day after the last dosing all animals were euthanized according to the standard SOP at KCl. After confirming the animal death the left lung BALF was collected according the standard SOP at KCl. The BALF was frozen in liquid nitrogen and stored at −80° C. The left lungs then were perfused with equal volume of 10% formaldehyde solution (3 mL for each lung).
Lung pathology was processed after lung fixation. All animal hearts were collected at same time, weighted, and fixed in 10% formaldehyde solution for histology examination.
The whole left lung was dehydrated and wax embedded following KCl pathology SOP, then sectioned at […] in thickness. HE and Masson Trichrome staining were processed following KCl pathology standard staining SOPs, whole slides were then scanned by Hamamatsu NanoZoomer Digital Pathology S210 slide scanner after staining. Bronchiole and pulmonary arteriole damage and inflammatory cell infiltration in fibrosis core and fibrotic board area were scored with H&E stained slides (Table 14 and Table 15, FIG. 8), for which 5 different areas were selected in each lung slide. BLM induced left lung injury area and Ashcraft scoring for fibrosis were evaluated with Masson Trichrome stained slides (Table 16 and FIG. 9), for which 10 different areas were selected in each lung slide.
The animal hearts were dehydrated and wax embedded following KCl pathology SOP, then sectioned at […] in thickness. HE staining was processed following KCl pathology standard staining SOPs, whole slides were then scanned by Hamamatsu NanoZoomer Digital Pathology S210 slide scanner after staining. The thickness of left ventricle wall (LV), septum and right ventricle wall (RV) were measured at five different points and calculated the average thickness of LV, septum and RV.
a Statistical analysis was performed using Graphpad prism 6.0 software. Descriptive results were expressed as mean±sem or mean±sd. Statistical comparisons were performed using t-test, two-way ANOVA analysis. The p value <0.05 was considered as statistically significant.

[2] = test system: BLM induced lung fibrosis; experiment: BLM induced unilateral lung fibrosis model; format: in vivo, SD rats; details: 10 mg/kg/d ip (n = 6), day 77
[3] = 10 mg/kg ip QD 14 days from day-8, p < 0.05 vs. model

For `CC(=O)NC(Cc1ccc(CN)cc1)c1nnc(-c2cccc(OC(F)(F)F)c2)s1` (stereo not drawn) [CPD-X], the “body weight recovery vs. model group” value [1] was “significant difference in body recovery”, the “fibrosis by Ashcraft scoring” value [1] was “significant reduction in fibrosis” and the “share of fibrosis score ≤3” value [1] was “about 80%”. The “left lung bronchial and arteriole damages (score), In the fibrosis core (n = 6)” value ([1]; 10 mg/kg ip QD 14 days from day-8, H&E, p < 0.001 vs. model) was 6.23 ± 0.67, the “left lung bronchial and arteriole damages (score), In the border of fibrosis (n = 6)” value ([1]; 10 mg/kg ip QD 14 days from day-8, H&E, p < 0.01 vs. model) was 4.8 ± 0.54 and the “Lang damage area (%)” value ([1]; 10 mg/kg ip QD 14 days from day-8, Masson Trichrome, left lung) was 70.69 ± 10.66%. The Ashcraft fibrosis score ([1]; 10 mg/kg ip QD 14 days from day-8, Masson Trichrome, p < 0.01 vs. model) was 2.55 ± 0.29, the “% of fibrosis score (≤3)” value [1, 3] was 90 ± 10.95 % and the “% of fibrosis score (≥4)” value [1, 3] was 10 ± 10.95 %. For the same compound, the “body weight, Changes in the ratio (%)” value ([1]; day 0) was 0%, the body weight ([1]; day 0) was 286.0 ± 6.1 and the “body weight, Changes in the ratio (%)” value ([1]; day 2) was −9.6 ± 3.6%. For the same compound, the body weight ([1]; day 2) was 258.7 ± 13.4, the “body weight, Changes in the ratio (%)” value ([1]; day 5) was −8.3 ± 6.7% and the body weight ([1]; day 5) was 262.4 ± 22.6. For the same compound, the “body weight, Changes in the ratio (%)” value ([1]; day 7) was −4.4 ± 7.6%, the body weight ([1]; day 7) was 273.6 ± 24.9 and the “body weight, Changes in the ratio (%)” value ([1]; day 9) was −0.8 ± 7.5%. For the same compound, the body weight ([1]; day 9) was 283.9 ± 24.5, the “body weight, Changes in the ratio (%)” value ([1]; day 11) was 2.8 ± 7.0% and the body weight ([1]; day 11) was 294.1 ± 23.5. The “body weight, Changes in the ratio (%)” value ([1]; day 13) was 5.5 ± 6.4%, the body weight ([1]; day 13) was 302.0 ± 22.0 and the “body weight, Changes in the ratio (%)” value ([1]; day 15) was 8.2 ± 6.1%. The body weight ([1]; day 15) was 309.0 ± 20.4, the “body weight, Changes in the ratio (%)” value ([1]; day 17) was 13.7 ± 6.4% and the body weight ([1]; day 17) was 325.3 ± 21.2. The “body weight, Changes in the ratio (%)” value ([1]; day 19) was 14.4 ± 5.9%, the body weight ([1]; day 19) was 327.3 ± 20.7 and the “body weight, Changes in the ratio (%)” value ([1]; day 21) was 18.4 ± 5.3%. For the same compound, the body weight ([1]; day 21) was 338.9 ± 19.4, the “therapeutic effect (summary)” value ([1]; ip from day-8 of modeling for 14 days) was “significant improvement in bronchial and arteriole damage and alveolar fibrosis” and the “right ventricle wall thickness” value ([1]; no statistic difference as compared to model group) was “slightly limited the right ventricle wall thickness”. The “bronchial and arteriole damages in fibrotic core and border of fibrosis” value ([1]; p<0.001) was “significant therapeutic effect on reduction of bronchial and arteriole damages”, the “body weight, Changes in the ratio (%)” value [2] was 19.4 ± 5.4% and the body weight ([2]; in g (unit assumed)) was 341.6 ± 18.8.
